Consider 24 molecules from US7846945B2, “Piperdine-based inhibitors of sodium glucose co-transporter 2 and methods of their use” (Lexicon Pharmaceuticals, Inc., priority 2007, dated 2010).

Molecules are shown by their SMILES.

This experiment deals with T1, Human sodium/glucose co-transporter type 2 (SGLT2) (Homo sapiens, UniProt P31639).
T1 construct: HA; expressed in transfected cells
T1 sequence (P31639 1-672): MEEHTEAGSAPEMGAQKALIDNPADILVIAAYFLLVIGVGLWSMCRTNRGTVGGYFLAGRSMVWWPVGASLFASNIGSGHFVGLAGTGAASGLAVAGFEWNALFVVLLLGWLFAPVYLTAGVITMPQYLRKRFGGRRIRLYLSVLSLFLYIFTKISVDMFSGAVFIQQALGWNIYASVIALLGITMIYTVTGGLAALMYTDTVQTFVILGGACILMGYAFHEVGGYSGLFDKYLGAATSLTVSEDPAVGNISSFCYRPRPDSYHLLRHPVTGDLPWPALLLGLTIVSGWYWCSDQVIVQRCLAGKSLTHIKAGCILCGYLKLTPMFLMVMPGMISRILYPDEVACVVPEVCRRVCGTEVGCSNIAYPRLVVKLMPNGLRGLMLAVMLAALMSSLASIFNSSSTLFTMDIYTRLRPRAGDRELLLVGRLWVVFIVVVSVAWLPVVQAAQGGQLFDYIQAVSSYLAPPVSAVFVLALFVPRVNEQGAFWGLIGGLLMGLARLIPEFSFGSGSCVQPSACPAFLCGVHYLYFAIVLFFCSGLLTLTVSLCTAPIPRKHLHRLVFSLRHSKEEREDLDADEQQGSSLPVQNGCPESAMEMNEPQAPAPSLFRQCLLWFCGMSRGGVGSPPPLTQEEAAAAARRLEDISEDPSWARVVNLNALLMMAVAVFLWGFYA
The experiment is described as follows: In vitro human SGLT2 inhibition assay (14C-AMG uptake). The following applies: HEK293 cells expressing human HA-SGLT2; potent = SGLT2 IC50 of less than about 500 nM; read-out: SGLT2 IC50 (potent SGLT2 inhibitor mark). In kind it is cell-based. The method, then:
HEK293 cells were transfected with the human HA-SGLT2-pIRESpuro2 vector and the bulk stable cell line was selected in presence of 0.5 μg/ml of puromycin. Human HA-SGLT2 cells were maintained in DMEM media containing 10% FBS, 1% GPS and 0.5 μg/ml of puromycin.
The HEK293 cells expressing the human HA-SGLT2 were seeded in 384 well plates (30,000 cells/well) in DMEM media containing 10% FBS, 1% GPS and 0.5 μg/ml of puromycin, then incubated overnight at 37 C, 5% CO2. Cells were then washed with uptake buffer (140 mM NaCl, 2 mM KCl, 1 mM CaCl2, 1 mM MgCl2, 10 mM HEPES, 5 mM Tris, 1 mg/ml bovine serum albumin (BSA), pH 7.3). Twenty microliters of uptake buffer with or without testing compounds were added to the cells. Then, 20 microliters of uptake buffer containing ^14C-AMG (100 nCi) were added to the cells. The cell plates were incubated at 37° C., 5% CO2 for 1-2 hours. After washing the cells with uptake buffer, scintillation fluid was added (40 microliters/well) and ^14C-AMG uptake was measured by counting radioactivity using a scintillation coulter (TopCoulter NXT; Packard Instruments).
The IC50 of a compound with regard to a given target is determined by fitting the relevant data, using the Levenburg Marquardt algorithm, to the equation: y=A+((B−A)/(1+((C/x)^D))) wherein A is the minimum y value; B is the maximum y value; C is the IC50; and D is the slope.
In the case of `CCOc1ccc(Cc2cc([C@@H]3O[C@H](SCC(F)(F)F)[C@@H](O)[C@H](O)[C@H]3O)ccc2Cl)cc1` [(2S,3R,4R,5S,6R)-2-[4-Chloro-3-(4-ethoxy-benzyl)-phenyl]-6-(2,2,2-trifluoro-ethylsulfanyl)-tetrahydro-pyran-3,4,5-triol], the concentration for half-maximal inhibition (IC50) (usually the midpoint of a concentration-inhibition curve) is below 0.5 µM. The same measure for `CCOc1ccc(Cc2cc([C@@H]3O[C@H](SCCO)[C@@H](O)[C@H](O)[C@H]3O)ccc2Cl)cc1` [(2S,3R,4R,5S,6R)-2-[4-Chloro-3-(4-ethoxy-benzyl)-phenyl]-6-(2-hydroxy-ethylsulfanyl)-tetrahydro-pyran-3,4,5-triol]: below 0.5 µM. For the molecule `CCOc1ccc(Cc2cc([C@@H]3O[C@H](SC4CCOC4C)[C@@H](O)[C@H](O)[C@H]3O)ccc2Cl)cc1` (stereo partly drawn) [(2S,3R,4R,5S,6R)-2-[4-Chloro-3-(4-ethoxy-benzyl)-phenyl]-6-(2-methyl-tetrahydro-furan-3-ylsulfanyl)-tetrahydro-pyran-3,4,5-triol], the IC50 was below 0.5 µM. The same measure for `CCOc1ccc(Cc2cc([C@@H]3O[C@H](SCCC(C)C)[C@@H](O)[C@H](O)[C@H]3O)ccc2Cl)cc1` [(2S,3R,4R,5S,6R)-2-[4-Chloro-3-(4-ethoxy-benzyl)-phenyl]-6-(3-methyl-butylsulfanyl)-tetrahydro-pyran-3,4,5-triol]: below 0.5 µM.

On to `CCOc1ccc(Cc2cc([C@@H]3O[C@H](SCc4ccco4)[C@@H](O)[C@H](O)[C@H]3O)ccc2Cl)cc1` [(2S,3R,4R,5S,6R)-2-[4-Chloro-3-(4-ethoxy-benzyl)-phenyl]-6-(furan-2-ylmethylsulfanyl)-tetrahydro-pyran-3,4,5-triol], for which the IC50 is below 0.5 µM. Consider `CCOc1ccc(Cc2cc([C@@H]3O[C@H](SC4CCCC4)[C@@H](O)[C@H](O)[C@H]3O)ccc2Cl)cc1` [(2S,3R,4R,5S,6R)-2-[4-Chloro-3-(4-ethoxy-benzyl)-phenyl]-6-cyclopentylsulfanyl-tetrahydro-pyran-3,4,5-triol], for which the IC50 was below 0.5 µM. The same measure for `CCOc1ccc(Cc2cc([C@@H]3O[C@H]([S+]([O-])CC)[C@@H](O)[C@H](O)[C@H]3O)ccc2Cl)cc1` (stereo partly drawn) [(2S,3R,4R,5S,6R)-2-[4-Chloro-3-(4-ethoxy-benzyl)-phenyl]-6-ethanesulfinyl-tetrahydro-pyran-3,4,5-triol]: below 0.5 µM; for `CCOc1ccc(Cc2cc([C@@H]3O[C@H](SCC)[C@@H](O)[C@H](O)[C@H]3O)ccc2Cl)cc1` [(2S,3R,4R,5S,6R)-2-[4-Chloro-3-(4-ethoxy-benzyl)-phenyl]-6-ethylsulfanyl-tetrahydro-pyran-3,4,5-triol]: below 0.5 µM. The same measure for `CCOc1ccc(Cc2cc([C@@H]3O[C@H]([S+](C)[O-])[C@@H](O)[C@H](O)[C@H]3O)ccc2Cl)cc1` (stereo partly drawn) [(2S,3R,4R,5S,6R)-2-[4-Chloro-3-(4-ethoxy-benzyl)-phenyl]-6-methanesulfinyl-tetrahydro-pyran-3,4,5-triol]: below 0.5 µM; for `CCOc1ccc(Cc2cc([C@@H]3O[C@H](SC)[C@@H](O)[C@H](O)[C@H]3O)ccc2Cl)cc1` [(2S,3R,4R,5S,6R)-2-[4-Chloro-3-(4-ethoxy-benzyl)-phenyl]-6-methylsulfanyl-tetrahydro-pyran-3,4,5-triol]: below 0.5 µM. Regarding `CCOc1ccc(Cc2cc([C@@H]3O[C@H](Oc4ccccc4)[C@@H](O)[C@H](O)[C@H]3O)ccc2Cl)cc1` [(2S,3R,4R,5S,6R)-2-[4-Chloro-3-(4-ethoxy-benzyl)-phenyl]-6-phenoxy-tetrahydro-pyran-3,4,5-triol], the half-inhibitory concentration (IC50) is below 0.5 µM. The same measure for `CO[C@H]1O[C@@H](c2ccc(Cl)c(Cc3ccc(O[C@@H]4CCOC4)cc3)c2)[C@H](O)[C@@H](O)[C@@H]1O` [(2S,3R,4R,5S,6S)-2-(4-Chloro-3-{4-[(R)-(tetrahydro-furan-3-yl)oxy]-benzyl}-phenyl)-6-methoxy-tetrahydro-pyran-3,4,5-triol]: below 0.5 µM.

As to `CCOc1ccc(Cc2cc([C@@H]3O[C@H](OCCO)[C@@H](O)[C@H](O)[C@H]3O)ccc2Cl)cc1` [(2S,3R,4R,5S,6S)-2-[4-Chloro-3-(4-ethoxy-benzyl)-phenyl]-6-(2-hydroxy-ethoxy)-tetrahydro-pyran-3,4,5-triol], the 50% inhibitory concentration (IC50) is below 0.5 µM. Turning to `CCOc1ccc(C(O)c2cc([C@@H]3O[C@H](OC)[C@@H](O)[C@H](O)[C@H]3O)ccc2Cl)cc1` (stereo partly drawn) [(2S,3R,4R,5S,6S)-2-{4-Chloro-3-[(4-ethoxy-phenyl)-hydroxy-methyl]-phenyl}-6-methoxy-tetrahydro-pyran-3,4,5-triol], the IC50 is below 0.5 µM. Regarding `CCOc1ccc(Cc2cc([C@H]3[C@H](O)[C@@H](O)[C@H](O)CN3Cc3ccccc3)ccc2Cl)cc1` [(2S,3S,4S,5R)-1-Benzyl-2-[4-chloro-3-(4-ethoxy-benzyl)-phenyl]-piperidine-3,4,5-triol], the IC50 was below 0.5 µM. `CCOc1ccc(Cc2cc([C@H]3[C@H](O)[C@@H](O)[C@H](O)CN3CC(C)C)ccc2Cl)cc1` [(2S,3S,4S,5R)-2-[4-Chloro-3-(4-ethoxy-benzyl)-phenyl]-1-isobutyl-piperidine-3,4,5-triol]: the 50% inhibitory concentration (IC50) is below 0.5 µM. For `C=CCNC(=O)N1C[C@@H](O)[C@H](O)[C@@H](O)[C@@H]1c1ccc(Cl)c(Cc2ccc(OCC)cc2)c1` [(2S,3S,4S,5R)-2-[4-Chloro-3-(4-ethoxy-benzyl)-phenyl]-3,4,5-trihydroxy-piperidine-1-carboxylic acid allyl amide], the IC50 was below 0.5 µM. The same measure for `CCOc1ccc(Cc2cc(C3NC(CO)[C@@H](O)[C@H](O)[C@H]3O)ccc2Cl)cc1` (stereo partly drawn) [(3S,4R,5R)-2-[4-Chloro-3-(4-ethoxy-benzyl)-phenyl]-6-hydroxymethyl-piperidine-3,4,5-triol]: below 0.5 µM. The same measure for `CCOc1ccc(Cc2cc([C@@H]3OC(OCc4ccccc4)[C@@H](O)[C@H](O)[C@H]3O)ccc2Cl)cc1` (stereo partly drawn) [(3S,4R,5R,6S)-2-Benzyloxy-6-[4-chloro-3-(4-ethoxy-benzyl)-phenyl]-tetrahydro-pyran-3,4,5-triol]: below 0.5 µM; for `CCOc1ccc(Cc2cc([C@@H]3O[C@H](SC[C@H](N)C(=O)O)[C@@H](O)[C@H](O)[C@H]3O)ccc2Cl)cc1` [(R)-2-Amino-3-{(2R,3S,4R,5R,6S)-6-[4-chloro-3-(4-ethoxy-benzyl)-phenyl]-3,4,5-trihydroxy-tetrahydro-pyran-2-ylsulfanyl}-propionic acid]: below 0.5 µM; for `COC1O[C@@H](c2ccc(Cl)c(Cc3ccc(OC(=S)N(C)C)cc3)c2)[C@H](O)[C@@H](O)[C@@H]1O` (stereo partly drawn) [Dimethyl-thiocarbamic acid O-{4-[2-chloro-5-((2S,3R,4R,5S)-3,4,5-trihydroxy-6-methoxy-tetrahydro-pyran-2-yl)-benzyl]-phenyl} ester]: below 0.5 µM. The same measure for `CCOc1ccc(Cc2cc([C@@H]3O[C@H](SCCNC(C)=O)[C@@H](O)[C@H](O)[C@H]3O)ccc2Cl)cc1` [N-(2-{(2R,3S,4R,5R,6S)-6-[4-Chloro-3-(4-ethoxy-benzyl)-phenyl]-3,4,5-trihydroxy-tetrahydro-pyran-2-ylsulfanyl}-ethyl)-acetamide]: below 0.5 µM; for `CCOc1ccc(C(=O)c2cc([C@@H]3O[C@H](OC)[C@@H](O)[C@H](O)[C@H]3O)ccc2Cl)cc1` [[2-Chloro-5-((2S,3R,4R,5S,6S)-3,4,5-trihydroxy-6-methoxy-tetrahydro-pyran-2-yl)-phenyl]-(4-ethoxy-phenyl)-methanone]: below 0.5 µM. For the molecule `CCOc1ccc(Cc2cc([C@@H]3OC(OCC(=O)OC)[C@@H](O)[C@H](O)[C@H]3O)ccc2Cl)cc1` (stereo partly drawn) [{(3S,4R,5R,6S)-6-[4-Chloro-3-(4-ethoxy-benzyl)-phenyl]-3,4,5-trihydroxy-tetrahydro-pyran-2-yloxy}-acetic acid methyl ester], the half-inhibitory concentration (IC50) is below 0.5 µM.
